Measured values from patent publication US12410171B2, “Tropomyosin receptor kinase (TRK) degradation compounds and methods of use” (Cullgen (Shanghai), Inc., priority 2020, dated 2025).
Blank lines part the entries; values can stand above or below the compound they belong to.

Legend:
[1] = Mouse pharmacokinetic (PK) studies, plasma concentrations; format: in vivo, mice; conditions: for bioavailability: mouse, plasma, oral, male ICR mice, single dose 10 mg/kg orally or 1 mg/kg intravenously (FIG. 23A)
Description: A single […] intraperitoneal injection of compound TR-123 was evaluated. Plasma concentrations of TR-123 reported at each of the 6 time points (30 min, 1 h, […], 4 h, 8 h, and 12 h post compound administration) are the average values from 3 test animals.
A single 2 mg/kg intravenous injection and 20 mg/kg oral gavage of TR-198 were evaluated in mice. Plasma concentrations of TR-198 reported at each of the 6 time points (5 min, 30 min, 2 h, 4 h, 8 h, and 12 h post compound administration via IV, 30 min, 1 h, 2 h, 4 h, 8 h, and 12 h post compound administration via p.o.) are the average values from 3 test animals.
Plasma concentrations of TR-231 and TR-275 were determined following a single dose of 10 mg/kg orally or 1 mg/kg intravenously in male ICR mice (FIG. 23A). Plasma concentrations of TR-231 or TR-275 are examined at indicated different time points post compound administration. The reported values are the average values from 3 test animals.
Standard PK studies were conducted using male Swiss Albino mice by Sai Life Sciences or using male ICR mice by Cullgen. Plasma exposures of TR-123 (10 mg/kg, intraperitoneal injection), TR-198 (20 mg/kg, oral gavage, or 2 mg/kg, intravenous injection), TR-231 and TR-275 (10 mg/kg, oral gavage, or 1 mg/kg, intravenous injection) were determined. Plasma concentrations were reported at indicated time points as the average values derived from three experimental animals. Error bars represent standard deviations.

wildtype TRKA protein = molecular target: T1, wildtype TRKA protein (Homo sapiens, UniProt P04629); assay: Wildtype TRKA protein levels in HEL erythroleukemia cells (Western blot); format: cell-based; conditions: for TRKA protein levels: dose range (FIG. 8)
T1 construct: wildtype TRKA protein expressed by HEL cells; endogenous in cells; host or cells: HEL erythroleukemia cells
Description: KM12 or HEL cells were treated with a dose range of compound TR-123 or TR-123-negative. The latter lost binding to cereblon (CRBN) due to a chemical modification.
KM12 or HEL cells were treated with a single dose of compound TR-123 or combination with MG-132, Bortezomib, MLN4924 or Pomalidomide.
HEL cells were treated with heterobifunctional compounds at 10 nM or 100 nM for 16 hours.
KM12, H358, HEL, SU-DHL-1 and other cells were cultured at 37° C. with 5% CO2 in RPMI 1640 Medium supplemented with 10% fetal bovine serum. Cells were authenticated using the short tandem repeat (STR) assays. Mycoplasma test results were negative. Stable cell lines were established by lentivirus transduction, selected and maintained in medium containing 1 μg/mL puromycin (Beyotime Biotechnology).
Cultured cells were washed with cold PBS once and lysed in cold RIPA buffer supplemented with protease inhibitors and phosphatase inhibitors (Beyotime Biotechnology). The solutions were then incubated at 4° C. for 30 minutes with gentle agitation to fully lyse cells. For tumor tissues, tumors were cut into small pieces, milled with cold RIPA buffer using a mechanical homogenizer and lysed for 1 hour at 4° C. Cell lysates were centrifuged at 13,000 rpm for 10 minutes at 4° C. and pellets were discarded. Total protein concentrations in the lysates were determined by BCA assays (Beyotime Biotechnology). Cell lysates were mixed with Laemmli loading buffer to 1× and heated at 99° C. for 5 min. Proteins were resolved on SDS-PAGE and visualized by chemiluminescence. Images were taken by a ChemiDoc MP Imaging system (Bio-Rad). Protein bands were quantitated using the software provided by Bio-Rad.

TPM3-TRKA fusion protein = molecular target: T2, TPM3-TRKA fusion protein (Homo sapiens, UniProt P04629); assay: TPM3-TRKA fusion protein levels in KM12 cells (Western blot); format: cell-based; conditions: for percent degradation of TPM3-TRKA protein at 0.01 µM: 16 h, TPM3-TRKA degradation in KM12 cells at 10 nM compound, category of percentage degradation, read-out: Degradation (at 10 nM); for TRKA protein levels: dose range (FIG. 8)
T2 construct: The resulted chimeric proteins always retain the kinase domain of TRK proteins; TPM3 (fusion partner, N-terminal part of tropomyosin alpha-3, P06753); endogenous in cells; host or cells: KM12 colon cancer cells; the other entry of the earlier key: TPM3 (P06753, Tropomyosin alpha-3 chain)
Summary of the method: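 TPM3-TRKA levels were assessed by Western blot with chemiluminescent detection and band densitometry, after SDS-PAGE of BCA-normalized RIPA lysates. Before lysis, KM12 cells received DMSO, compounds or matched control compounds at concentrations including 0.1, 1, 10 and 100 nM and 0.4–30 nM. Exposures lasted 4 h, 8–16 h or 16 h.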

[2] = system: KM12 subcutaneous xenograft tumors; assay: KM12 subcutaneous xenograft tumor growth; format: in vivo, Athymic nude mice; conditions: 10-20 mg/kg qd or bid via oral gavage (FIG. 15A-15B)
Description: Athymic nude mice bearing KM12 subcutaneous xenograft tumors at the right flank were intraperitoneally treated with vehicle or 25 mg/kg CPD-060 once per day (qd), twice per day (bid), or once every two days (q2d). Tumor volumes were assessed every two days and expressed as length×width×width/2. Body weights of experimental mice were also measured to assess the toxicity of compounds.
Athymic nude mice bearing KM12 subcutaneous xenograft tumors at the right flank were treated with vehicle, 10-20 mg/kg TR-181 or TR-198 once per day (qd), or twice per day (bid) via oral gavage. Tumor volumes were assessed every two days and expressed as length×width×width/2. Body weights of experimental mice were also measured to assess the toxicity of compounds.
Mice bearing KM12 xenograft tumors were treated with vehicle, TR-231 or TR-275 orally at 40 mg/kg, twice per day for 14 days. Tumor sizes were measured every two days and presented as volume=(length×width×width)/2. […]
All animal experiments were performed under protocols approved by the Institutional Animal Care and Use Committee (IACUC) of Cullgen. […] Tumor volumes were calculated as […]. For tumor growth assays, tumor sizes and body weight of mice were measured every 2 days. For pharmacodynamic studies, the levels of TPM3-TPKA in xenograft tumors was determined following a single dose of drug administration. […]

KM12 cells = assay: KM12 cell viability (CellTiter-Glo); format: cell-based; conditions: Homo sapiens, 72 h; KM12 cell viability, CellTiter-Glo, three days treatment; read-out: IC50
Summary of the method: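 Three-day exposure of KM12 cells (5000/well, RPMI 1640 with 10% FBS, 37 °C, 5% CO2) to compound dilution series, 3-fold over 8 or 11 points (top 1000 nM in the 8-point format) or 2-fold over 12. CellTiter-Glo readout, with IC50 fitted by nonlinear least-squares regression.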

TRK-fusions = conditions: phase 2 results, cited from earlier work

T1 sequence (P04629 33-796): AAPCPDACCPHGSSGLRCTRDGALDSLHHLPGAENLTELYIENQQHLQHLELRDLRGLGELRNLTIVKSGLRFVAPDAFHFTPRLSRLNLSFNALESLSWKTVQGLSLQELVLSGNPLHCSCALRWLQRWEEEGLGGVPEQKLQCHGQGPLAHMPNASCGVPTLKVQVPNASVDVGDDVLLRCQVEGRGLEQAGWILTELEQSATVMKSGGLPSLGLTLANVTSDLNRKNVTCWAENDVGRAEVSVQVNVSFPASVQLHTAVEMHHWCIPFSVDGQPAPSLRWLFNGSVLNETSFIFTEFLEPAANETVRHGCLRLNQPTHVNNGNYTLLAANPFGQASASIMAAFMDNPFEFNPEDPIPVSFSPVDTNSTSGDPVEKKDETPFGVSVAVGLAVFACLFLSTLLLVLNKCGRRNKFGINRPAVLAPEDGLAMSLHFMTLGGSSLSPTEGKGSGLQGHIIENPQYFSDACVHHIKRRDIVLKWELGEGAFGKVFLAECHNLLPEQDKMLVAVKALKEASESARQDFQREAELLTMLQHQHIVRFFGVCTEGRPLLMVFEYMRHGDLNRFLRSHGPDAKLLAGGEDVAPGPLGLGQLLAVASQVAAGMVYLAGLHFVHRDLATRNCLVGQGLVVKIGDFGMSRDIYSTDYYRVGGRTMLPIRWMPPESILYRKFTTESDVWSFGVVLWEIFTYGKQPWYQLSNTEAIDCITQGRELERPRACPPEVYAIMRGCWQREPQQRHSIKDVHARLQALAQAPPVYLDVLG
T2 sequence (P04629 with tags, fused parts or gaps): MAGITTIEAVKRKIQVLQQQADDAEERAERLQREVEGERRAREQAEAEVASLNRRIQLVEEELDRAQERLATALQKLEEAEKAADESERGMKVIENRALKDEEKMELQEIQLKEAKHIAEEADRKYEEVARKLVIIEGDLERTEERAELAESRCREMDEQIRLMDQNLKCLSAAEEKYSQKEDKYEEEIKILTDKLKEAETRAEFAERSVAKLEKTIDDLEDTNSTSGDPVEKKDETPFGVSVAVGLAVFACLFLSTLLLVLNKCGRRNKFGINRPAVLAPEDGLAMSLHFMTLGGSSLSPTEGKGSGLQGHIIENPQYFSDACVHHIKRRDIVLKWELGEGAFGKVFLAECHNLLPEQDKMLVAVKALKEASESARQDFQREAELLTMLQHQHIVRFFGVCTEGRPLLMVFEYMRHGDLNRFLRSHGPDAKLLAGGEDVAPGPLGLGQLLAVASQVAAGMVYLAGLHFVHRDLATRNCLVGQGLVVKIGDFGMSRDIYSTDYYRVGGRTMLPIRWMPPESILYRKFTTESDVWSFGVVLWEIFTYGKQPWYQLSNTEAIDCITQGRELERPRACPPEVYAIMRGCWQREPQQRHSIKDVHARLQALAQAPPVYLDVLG

Structure (SMILES): O=C1CCC(N2C(=O)c3ccc(NCC(=O)N4CCN(c5cccc(-c6cnc7ccc(N8CCC[C@@H]8c8cccc(F)c8)nn67)n5)CC4)cc3C2=O)C(=O)N1 (stereo partly drawn) [TR-123, 2-(2,6-dioxopiperidin-3-yl)-5-((2-(4-(6-(6-((R)-2-(3-fluorophenyl)pyrrolidin-1-yl)imidazo[1,2-b]pyridazin-3-yl)pyridin-2-yl)piperazin-1-yl)-2-oxoethyl)amino) isoindoline-1,3-dione]
plasma exposure ([1]; single 20 mg/kg intraperitoneal injection, over 12 hours, average of 3 animals (FIG. 11)): good plasma exposure
TRKA protein levels (wildtype TRKA protein): reduced TRKA protein levels in a concentration-dependent manner
TRKA degradation in combination with MG-132, Bortezomib, MLN4924 or Pomalidomide (wildtype TRKA protein; single dose (FIG. 9)): compromised
percent degradation of TPM3-TRKA protein at 0.01 µM (TPM3-TRKA fusion protein): > 80%
TRKA protein levels (TPM3-TRKA fusion protein; KM12 cells): reduced TRKA protein levels in a concentration-dependent manner
TRKA degradation in combination with MG-132, Bortezomib, MLN4924 or Pomalidomide (TPM3-TRKA fusion protein; KM12 cells, single dose (FIG. 9)): compromised

Structure (SMILES): O=C(Nc1cnn2ccc(N3CCC[C@@H]3c3cc(F)ccc3F)nc12)N1CC[C@H](O)C1 [larotrectinib]
patient remained progression-free at 1 year (TRK-fusions; at 1 year): 55%
patients responded to the therapy (TRK-fusions; patients with TRK-fusions): 75%

Structure (SMILES): CN1C(=O)CCC(N2C(=O)c3ccc(NCC(=O)N4CCN(c5cccc(-c6cnc7ccc(N8CCC[C@@H]8c8cccc(F)c8)nn67)n5)CC4)cc3C2=O)C1=O (stereo partly drawn) [TR-123-negative, 5-((2-(4-(6-(6-((R)-2-(3-fluorophenyl)pyrrolidin-1-yl)imidazo[1,2-b]pyridazin-3-yl)pyridin-2-yl)piperazin-1-yl)-2-oxoethyl)amino)-2-(1-methyl-2,6-dioxopiperidin-3-yl)isoindoline-1,3-dione]
TRKA protein levels (wildtype TRKA protein): had none or less effects on TRKA protein levels
TRKA protein levels (TPM3-TRKA fusion protein; KM12 cells): had none or less effects on TRKA protein levels

Now from value to compound, other results behind:

percent degradation of TPM3-TRKA protein at 0.01 µM (TPM3-TRKA fusion protein): > 80%
Structure (SMILES): O=C1CCC(N2C(=O)c3ccc(NCCN4CCN(c5cccc(-c6cnc7ccc(N8CCC[C@@H]8c8cccc(F)c8)nn67)n5)CC4)cc3C2=O)C(=O)N1 (stereo partly drawn) [TR-181, 2-(2,6-dioxopiperidin-3-yl)-5-((2-(4-(6-(6-((R)-2˜ (3-fluorophenyl)pyrrolidin-1-yl)imidazo[1,2-b]pyridazin-3-yl)pyridin-2-yl)piperazin-1-yl)ethyl)amino) isoindoline-1,3-dione]
in vivo anti-tumor activity (tumor volume) [2]: significant in vivo anti-tumor activity
IC50 (KM12 cells): 2.9 nM

bioavailability [1]: ~27%
percent degradation of TPM3-TRKA protein at 0.01 µM (TPM3-TRKA fusion protein): 50 to 80%
Structure (SMILES): O=C1CCC(N2C(=O)c3ccc(N4CC(N5CCN(c6ccc(C(=O)Nc7n[nH]c8ccc(Cc9cc(F)cc(F)c9)cc78)c(NC7CCOCC7)c6)CC5)C4)cc3C2=O)C(=O)N1 (stereo not drawn) [TR-275, N-(5-(3,5-difluorobenzyl)-1H-indazol-3-yl)-4-(4-(1-(2-(2,6-dioxopiperidin-3-yl)-1,3-dioxoisoindolin-5-yl)azetidin-3-yl)piperazin-1-yl)-2-((tetrahydro-2H-pyran-4-yl)amino)benzamide]
IC50 (KM12 cells): 8.9 nM

percent degradation of TPM3-TRKA protein at 0.01 µM (TPM3-TRKA fusion protein): > 80%
Structure (SMILES): O=C1CCC(N2C(=O)c3ccc(N4CC(CN5CCN(c6cccc(-c7cnc8ccc(N9CCC[C@@H]9c9cccc(F)c9)nn78)n6)CC5)C4)cc3C2=O)C(=O)N1 (stereo partly drawn) [TR-198, 2-(2,6-dioxopiperidin-3-yl)-5-(3-((4-(6-(6-((R)-2-(3-fluorophenyl)pyrrolidin-1-yl)imidazo[1,2-b]pyridazin-3-yl)pyridin-2-yl)piperazin-1-yl)methyl)azetidin-1-yl)isoindoline-1,3-dione]
in vivo anti-tumor activity (tumor volume) [2]: significant in vivo anti-tumor activity

bioavailability [1]: ~48%
percent degradation of TPM3-TRKA protein at 0.01 µM (TPM3-TRKA fusion protein): > 80%
Structure (SMILES): O=C1CCC(N2C(=O)c3ccc(N4CC(CN5CCN(c6ccc(C(=O)Nc7n[nH]c8ccc(Cc9cc(F)cc(F)c9)cc78)c(NC7CCOCC7)c6)CC5)C4)cc3C2=O)C(=O)N1 (stereo not drawn) [TR-231]
IC50 (KM12 cells): 3 nM
